Patent US9109041B2, “Analog compounds of analgesic peptides derived from the venom of crotalus durissus terrificus snakes, their uses, compositions, methods of preparation and purification” (priority 2004, dated 2015)

How the values were obtained:
[1] = test system: allodynia induced by constriction of the sciatic nerve; test: allodynia induced by chronic constriction of the sciatic nerve (von Frey hairs); assay type: in vivo, rat; conditions: for paw withdrawal threshold (allodynia), FM 24 h: day 14, 24 h after peptide; for paw withdrawal threshold (allodynia), FM 48 h: day 14, 48 h after peptide; for paw withdrawal threshold (allodynia), FM 72 h: day 14, 72 h after peptide; for paw withdrawal threshold (allodynia), FM 96 h: day 14, 96 h after peptide
Experimental: (§1) For the induction of neuropathic pain, surgery was performed in the sciatic nerve, in accordance with the method described by Bennett, G. J and Xie, Y. K. (Pain, 33:87-107, 1988). The animals were anesthetized with halothane. The sciatic nerve was exposed in the middle region of the thigh, moving away the femoral biceps muscle. Close to the trifurcation of the sciatic nerve, 7 mm of distance from the trifurcation, 4 loose ligations were performed (chromed catgut 4-0) around it, distant from each other in approximately 1 mm. The bindings were performed along the nerve, up to 4-5 mm from the initial point. The incision was sutured in layers, using silk suture thread number 4-0.
Allodynia was evaluated for quantitative testing, in response to tactile stimulus applied to the paws of the rat, according to the method described by Chaplan el al. (1994), modified. In this test, the rats were placed, individually, in plastic cages, with meshed wire at the bottom, to allow access to the paws of these animals. Briefly, a logarithmic series of 10 calibrated Semmes-Weinstein monofilaments (von Frey hairs, Aesthesiometer Semmer-Weinstein, Stoelting Co., E.U.A) was applied to the right hind paw to determine the stimulus intensity threshold stiffness required to elicit a paw withdrawal response. Log stiffness of the hairs is determined by log 10 (mg×10) having the following values (the value in grams is between parenthesis): 3.61 (0.407 g); 3.84 (0.692 g); 4.08 (1.202 g); 4.17 (1.479 g); 4.31 (2.041 g); 4.56 (3.630 g); 4.74 (5.495 g); 4.93 (8.511 g); 5.07 (11.749 g) and 5.18 (15.136 g). It is important to point out that the filaments with weight greater than 15.136 g were not employed in the studies of allodynia.
The filaments were applied, one by one, perpendicularly, under the plantar area of both hind paws and maintained for a period of 8 seconds. The filament capable of eliciting the withdrawal of the paw, two consecutive times, was considered as the force in grams necessary to elicit the response (100% of response). In the absence of a response to the greater stimulus (15.135 g), this filament was considered as cut value.
The behavioral responses were used to calculate the 50% paw withdrawal threshold (absolute threshold), by fitting a gaussian integral psychometric function, using a maximum-likelihood fitting method. This fitting method allows parametric analyses.
The period of the application of the test and the treatments were the same as those used for determination of hyperalgesia (Table 12).
The results were analyzed by comparing the means of the basal and initial measurements or, when determined, by comparing the means obtained in the different experimental groups.
(§2) For this purpose, the animals were treated with CTOP, a specific μ receptor antagonist (20 μg/paw), nor-BNI, a specific κ receptor antagonist (50 μg/paw) or with ICI 174,864, a specific δ receptor antagonist (10 μg/paw). The antagonists were injected, by intraplantar route. The peptide was administered in the dose of 5 μg/kg, orally, immediately before the injection of the opioid antagonists.
(§3) The results were analyzed comparing the mean values of the basal and initial measurements, or of the initial and final measurements or, when determined, by comparing the mean values obtained in the different experimental groups (Tables 15 and 16).

[2] = test system: hyperalgesia induced by chronic constriction of the sciatic nerve; test: hyperalgesia induced by chronic constriction of the sciatic nerve (rat paw pressure test); assay type: in vivo; conditions: 0.0016 μg/kg p.o.; before surgery
Experimental: as §1
The test was applied before (BM-basal measurement) and on the 14th day after the surgery, to characterize the development of neuropathic pain.
The results were analyzed by comparing the means of the basal and initial measurements or by comparing the means of the initial and final measurements or, when determined, through the comparison of the means obtained in the different experimental groups.
as §2, §3

Xaa-Phe-Ser-Pro-Glu-Asn-Cys-Gln-Gly-Glu-Ser-Gln-Pro-Cys [SEQ ID NO: 2]
paw withdrawal threshold (allodynia), FM 3 h ([1]; 1 μg/kg p.o., day 14, 3 h after peptide): 4.62 ± 0.00 log 10 (mg × 10) | paw withdrawal threshold (allodynia), FM 24 h ([1]; 1 μg/kg p.o.): 4.62 ± 0.00 log 10 (mg × 10) | paw withdrawal threshold (allodynia), FM 48 h ([1]; 1 μg/kg p.o.): 4.62 ± 0.00 log 10 (mg × 10) | paw withdrawal threshold (allodynia), FM 72 h ([1]; 1 μg/kg p.o.): 4.62 ± 0.00 log 10 (mg × 10) | paw withdrawal threshold (allodynia), FM 96 h ([1]; 1 μg/kg p.o.): 4.22 ± 0.00 log 10 (mg × 10) | paw withdrawal threshold (allodynia), IM ([1]; 1 μg/kg p.o., day 14 after surgery, before peptide): 4.23 ± 0.01 log 10 (mg × 10) | paw withdrawal threshold (allodynia), FM 1 h ([1]; 5 μg/kg p.o. + CTOP 20 μg/paw i.pl., 1 h after peptide): 5.00 ± 0.05 log 10 (mg × 10) | paw withdrawal threshold (allodynia), FM 3 h ([1]; 5 μg/kg p.o. + CTOP 20 μg/paw i.pl., 3 h after peptide): 4.99 ± 0.02 log 10 (mg × 10) | paw withdrawal threshold (allodynia), BM ([1]; 5 μg/kg p.o. + CTOP 20 μg/paw i.pl., before surgery): 4.99 ± 0.02 log 10 (mg × 10) | paw withdrawal threshold (allodynia), IM ([1]; 5 μg/kg p.o. + CTOP 20 μg/paw i.pl., day 14, before peptide): 4.29 ± 0.04 log 10 (mg × 10) | paw withdrawal threshold (allodynia), FM 1 h ([1]; 5 μg/kg p.o. + ICI 174,864 10 μg/paw i.pl., 1 h after peptide): 4.22 ± 0 log 10 (mg × 10) | paw withdrawal threshold (allodynia), FM 3 h ([1]; 5 μg/kg p.o. + ICI 174,864 10 μg/paw i.pl., 3 h after peptide): 4.22 ± 0 log 10 (mg × 10) | paw withdrawal threshold (allodynia), BM ([1]; 5 μg/kg p.o. + ICI 174,864 10 μg/paw i.pl., before surgery): 4.96 ± 0.04 log 10 (mg × 10) | paw withdrawal threshold (allodynia), IM ([1]; 5 μg/kg p.o. + ICI 174,864 10 μg/paw i.pl., day 14, before peptide): 4.29 ± 0.04 log 10 (mg × 10) | paw withdrawal threshold (allodynia), FM 1 h ([1]; 5 μg/kg p.o. + nor-BNI 50 μg/paw i.pl., 1 h after peptide): 4.62 ± 0 log 10 (mg × 10) | paw withdrawal threshold (allodynia), FM 3 h ([1]; 5 μg/kg p.o. + nor-BNI 50 μg/paw i.pl., 3 h after peptide): 4.62 ± 0 log 10 (mg × 10) | paw withdrawal threshold (allodynia), BM ([1]; 5 μg/kg p.o. + nor-BNI 50 μg/paw i.pl., before surgery): 5.03 ± 0.02 log 10 (mg × 10) | paw withdrawal threshold (allodynia), IM ([1]; 5 μg/kg p.o. + nor-BNI 50 μg/paw i.pl., day 14, before peptide): 4.25 ± 0.03 log 10 (mg × 10) | paw withdrawal threshold (allodynia), FM 1 h ([1]; 5 μg/kg p.o., 1 h after peptide (Table 16)): 5.08 ± 0.01 log 10 (mg × 10) | paw withdrawal threshold (allodynia), FM 3 h ([1]; 5 μg/kg p.o., 3 h after peptide (Table 16)): 5.09 ± 0 log 10 (mg × 10) | paw withdrawal threshold (allodynia), BM ([1]; 5 μg/kg p.o., before surgery (Table 12)): 4.99 ± 0.03 log 10 (mg × 10) | paw withdrawal threshold (allodynia), BM ([1]; 5 μg/kg p.o., before surgery (Table 16)): 5.00 ± 0.03 log 10 (mg × 10) | paw withdrawal threshold (allodynia), FM 1 h ([1]; 5 μg/kg p.o., day 14, 1 h after peptide (Table 12)): 4.94 ± 0.05 log 10 (mg × 10) | paw withdrawal threshold (allodynia), FM 3 h ([1]; 5 μg/kg p.o., day 14, 3 h after peptide (Table 12)): 4.98 ± 0.04 log 10 (mg × 10) | paw withdrawal threshold (allodynia), FM 24 h ([1]; 5 μg/kg p.o.): 4.97 ± 0.03 log 10 (mg × 10) | paw withdrawal threshold (allodynia), FM 48 h ([1]; 5 μg/kg p.o.): 4.93 ± 0.04 log 10 (mg × 10) | paw withdrawal threshold (allodynia), FM 72 h ([1]; 5 μg/kg p.o.): 4.85 ± 0.02 log 10 (mg × 10) | paw withdrawal threshold (allodynia), FM 96 h ([1]; 5 μg/kg p.o.): 4.21 ± 0.01 log 10 (mg × 10) | paw withdrawal threshold (allodynia), IM ([1]; 5 μg/kg p.o., day 14, before peptide (Table 16)): 4.27 ± 0.04 log 10 (mg × 10) | paw withdrawal threshold (allodynia), IM ([1]; 5 μg/kg p.o., day 14 after surgery, before peptide (Table 12)): 4.23 ± 0.00 log 10 (mg × 10) | duration of the anti-allodynic effect ([1]; one single administration p.o.): up to 3 days | effect of the mu opioid receptor antagonist on the anti-allodynic effect of the peptide ([1]; peptide 5 μg/kg p.o., CTOP 20 μg/paw i.pl.): did not alter | effect of the delta opioid receptor antagonist on the anti-allodynic effect of the peptide ([1]; peptide 5 μg/kg p.o., ICI 174,864 10 μg/paw i.pl.): blocked | effect of the kappa opioid receptor antagonist on the anti-allodynic effect of the peptide ([1]; peptide 5 μg/kg p.o., nor-BNI 50 μg/paw i.pl.): partially inhibited | pain threshold, BM [2]: 72 ± 1.22 g
